Assay results published in patent publication US20020015941A1, “Method for treatment of neurodegenerative diseases” (The General Hospital Corporation, priority 2000, published 2002).
Read-outs that look alike come from different tables or passages of the source.

Legend:
[1] = tested on: capacitative Ca2+ entry (CCE) in SY5Y cells; type: cell-based, human
[2] = tested on: capacitative calcium entry (CCE); details: literature; cited from earlier work
[3] = tested on: IP3-elicited release of Ca2+ from internal stores; details: literature; cited from earlier work
[4] = tested on: ICRAC channels in wild-type PS1 CHO cells; assay: ICRAC by whole-cell patch clamp in stable CHO cells; type: cell-based, Chinese hamster; details: wild-type PS1 CHO cells pretreated with 10 μM SKF96365 for 30 min
[5] = tested on: Aβ42/Aβtotal in CHO cells stably overexpressing human APP; assay: Aβ sandwich ELISA, CHO cells stably overexpressing human APP; type: cell-based, Chinese hamster; details: CHO-APP, indicated concentrations for 12 hours (FIG. 5C)
[6] = tested on: total Aβ and Aβ42 in D257A-PS1 CHO cells; assay: Aβ generation in CHO cells stably expressing APP and D257A-PS1; type: cell-based, Chinese hamster
[7] = tested on: capacitative calcium entry (CCE) in CHO cells; assay: CCE by ratiometric Ca2+ imaging in CHO cells; type: cell-based, Chinese hamster
[8] = tested on: secreted APP-α in 293 cells stably expressing human APP; assay: Secreted APPs-α by immunoprecipitation (22C11) and blot (6E10); type: cell-based; details: SKF96365 treatment, 12 hour
[9] = tested on: CHO or 293 cells stably expressing human APP
[10] = tested on: voltage-operated Ca2+ channels; details: literature; cited from earlier work
CHO and CHO-APP cells = details: Aβ42 pre-treatment
Protocol: The Aβ42 peptides were obtained from Bachem and dissolved in PBS at 1 mg/ml directly before use.

C=C1[C@@H](C)[C@H]2[C@H](Cc3ccccc3)NC(=O)[C@]23[C@H](OC(C)=O)/C=C/[C@@](C)(O)C(=O)[C@@H](C)C/C=C/[C@H]3[C@@H]1O [CytoD, Cytochalasin D]
Ca2+ influx in wild-type PS1 or M146L-PS1 cells [1]: essentially no effect
effect on CCE [2]: no effect
IP3-elicited release of Ca2+ from internal stores [3]: impairs

COc1ccc(CCCOC(Cn2ccnc2)c2ccc(OC)cc2)cc1 (centres unmarked) [SKF96365]
Ca2+ influx (CCE) after pretreatment ([1]; 100 μM SKF96365 1 hr, 100 nM CalyA 20 min, nifedipine 1 μM, ω-conotoxin GVIA 2 μM, prior to induction of CCE): blocked
ICRAC (peak current density) [4]: virtually eliminated
Aβ42-promoting effect versus concentration [5]: dose-dependent
generation of Aβ42 in D257A-PS1 cells ([6]; 50 μM SKF96365): did not restore
generation of total Aβ in D257A-PS1 cells ([6]; 50 μM SKF96365): did not restore
relative Aβ42 levels as share of total Aβ levels in D257A cells ([6]; following treatment with SKF96365 (50 μM)): greater than 90%
degree of CCE reduction in D257A-PS1 cells compared to wild-type PS1 cells ([7]; 50 μM SKF96365, 12 hrs): much less
secreted APP-α levels [8]: did not alter
cell viability [9]: did not alter
effect on voltage-operated Ca2+ channels [10]: minor inhibitory effect

Aβ42: 42-amino acid version of amyloid β-peptide, obtained from Bachem
CCE response after Aβ42 pre-treatment ([7]; CHO and CHO-APP cells pre-incubated with 20 PM Aβ42 for 3 hours): no detectable effect
cell viability (CHO and CHO-APP cells): not affected

Calyculin A
Ca2+ influx (CCE) after pretreatment [1]: blocked

ω-conotoxin GVIA
Ca2+ influx (CCE) after pretreatment [1]: virtually no effect
